The values that follow are results of earlier work, collected in patent US6653352B2, “Pain reliever and method of use” (Medical Merchandising, Inc., priority 1999, dated 2003).

The conditions of this series: in fats, oils and alcohols.

`COc1cc(CNC(=O)CCCC/C=C/C(C)C)ccc1O` [Capsaicin, N-Vanillyl-8-methyl-6-(E)-noneamide]: the solubility entry is “very soluble in fats, oils and alcohols”.
